Test results published in US20180153830A1, “SELECTIVE INHIBITORS OF UNDIFFERENTIATED CELLS” (Yissum Research Development Company of the Hebrew …, priority 2012, published 2018).
Where a name gives a salt, the structure may show the parent alone. Peptide text beside a SMILES is read from it. * marks the point of attachment. Cbz = O=C(OCc1ccccc1)*; CH2F = FC*

Tests used:
[1] = hPSC viability after SCD1 inhibitors with or without oleic acid; format: cell-based, human; details: human, human pluripotent stem cells (hPSCs), 75 nM, read-out: decrease in viability of hPSCs
Method: (§1) In order to determine whether hPSC viability indeed depends on functional SCD1 activity, hPSCs were exposed to 75 nM of the specific SCD1 inhibitors A939572 and CAY-10566 for 48 hours. Some samples were supplemented with 100 μM oleic acid in order to evaluate the effect of exogenous supplementation of oleic acid (a product of SCD1 activity) on cell death.

hPSCs = test: as above; format: cell-based, human; details: 75 nM inhibitor, 100 μM oleic acid, 48 hours
Method: as §1

[2] = test system: human embryonic stem cells; test: Pancaspase inhibitor effect on PluriSIn #1-induced cell death; format: cell-based; details: 25 μM or 100 μM, 1 hour before 20 μM PluriSIn #1; 24 hours
Method: The effect of the pancaspase inhibitor Z-VAD-FMK on PluriSIn #1-induced cell death was also examined. Cells were treated with 25 μM or 100 μM of Z-VAD-FMK, and 1 hour later PluriSIn #1 (20 μM) was added to the medium. After 24 hours, the cultures were subjected to cell viability measurements, as described hereinabove.

[3] = test system: human pluripotent stem cells (hPSCs); test: Pilot cytotoxicity screen with 50 commercially available compounds; format: cell-based; details: within 24 hours
Method: (§2) The CellTiter-Glo® luminescent cell viability assay (Promega, Madison, Wis.) was implemented as a high-throughput screening (HTS) assay for a chemical library screen in a 384-well format. After the DMSO tolerance of the assay was assessed, and the optimal cell numbers were determined for each cell type, a pilot screen was performed with the following 50 commercially available compounds:
(§3) 3-acetamidophenol, 4-acetamidophenol, 6-methylcoumarin, acetaminophen, acetazolamide, actidione, amantadine hydrochloride, aminosalicylic acid, amodiaquine, amsacrine hydrochloride, aztreonam, caffeine, carboplatin, cefamandole sodium, cholic acid, ciprofloxacin, clozapine, coumarin, crotaline, diflunisal, dopamine, doxycycline, erythromycin, estradiol, famotidine, fenofibrate, fludrocortisone acetate, gentamicin, imipramine, isoniazid, isoproterenol, kanamycin, ketoconazole, L-thyroxine, mefenamic acid, nadolol, naibuphine hydrochloride hydrate, nizatidine, norepinephrine, phenobarbital, quinine hydrochloride, salicylate, sodium 2-mercapto-ethanesulfonate, sulfasalazine, sulindac, tetracycline, tetraethylthiarum disulfide, timolol maleate, valproic acid sodium, and WY-14643.
(§4) A pilot screen was then performed with 50 commercially-available compounds (as described in the Materials and Methods section hereinabove), which were randomly selected from a bank of known cytotoxic compounds. […]

[4] = test system: human embryonic stem cells; test: Oleic acid rescue assay; format: cell-based; details: 20 μM PluriSIn (2 μM amsacrine); up to 100 μM BSA-OA
Method: Human embryonic stem cells were cultured without feeder cells in CELLSTAR® 24-well tissue culture plates (Greiner Bio-One) pre-coated with Matrigel™, using mTeSR1 defined medium. […] After 24 hours, the cells were subjected to microscopy imaging and to cell viability measurements.
In order to further investigate the effect of SCD activity on hPSC viability, the ability of exogenous supplementation of oleic acid (the direct product of SCD1) to rescue cells from PluriSIn-induced apoptosis was further studied, using procedures described in the Materials and Methods section. Cells were exposed to PluriSn #1 in the presence of increasing concentrations of BSA-conjugated oleic acid (BSA-OA).
For comparison, cells were exposed to 20 μM of PluriSIn #1, #2, #3 and #6 in the presence of 100 μM BSA-OA.

[5] = Pilot cytotoxicity screen with 50 commercially available compounds; format: cell-based, human; details: human; after 24 hours, at a concentration of 1-3 μM; read-out: decrease in cell viability
Method: as §2, §3, §4

[6] = test system: embryonic stem cells and differentiated cells (human fibroblasts); test: Cytotoxicity of ER stress inducer and protein synthesis inhibitor with or without oleic acid

## Cc1nnc(-c2ccc(N3CCC(Oc4cc(F)ccc4Cl)CC3)nn2)o1 [CAY-10566, 3-[4-(2-chloro-5-fluorophenoxy)-1-piperidinyl]-6-(5-methyl-1,3,4-oxadiazol-2-yl)-pyridazine]
[1]
  cytotoxicity at 48 h, 75 nM: > 80%
hPSCs
  rescue from SCD1 inhibitor-induced cell death by oleic acid: completely rescued

## COC(=O)C[C@H](NC(=O)[C@H](C)NC(=O)[C@@H](NC(=O)OCc1ccccc1)C(C)C)C(=O)CF [Z-VAD-FMK] (Cbz-Val-Ala-Asp(OMe)-CH2F)
[2]
  suppression of PluriSIn #1-induced cell death: significant suppressed PluriSIn #1-induced cell death

## COc1cc(NS(C)(=O)=O)ccc1Nc1c2ccccc2nc2ccccc12 [amsacrine hydrochloride, reference compound]
[3]
  cell killing: killed almost all cells
[4]
  protection by BSA-conjugated oleic acid (BSA-OA) against cell death induced by the compound: did not protect

## C[C@@H]1C[C@@H]([C@H](O)CC2CC(=O)NC(=O)C2)C(=O)[C@@H](C)C1 [cycloheximide]
[5]
  cytotoxicity at 24 h: ~50%
[6]; 100 μM oleic acid
  protection by oleic acid against the compound's cytotoxicity: does not protect
[6]; 1 mM dithiothreitol or 10 μM cycloheximide, 48 hours
  cytotoxicity towards embryonic stem cells and differentiated cells: cytotoxic towards both embryonic stem cells and differentiated cells
